Experimental data reported in publication PMC3104677 (Molecular microbiology, 2009).

Target: T1, NrpR (Methanococcus maripaludis, UniProt Q6LZL7)
T1 sequence (Q6LZL7 1-536): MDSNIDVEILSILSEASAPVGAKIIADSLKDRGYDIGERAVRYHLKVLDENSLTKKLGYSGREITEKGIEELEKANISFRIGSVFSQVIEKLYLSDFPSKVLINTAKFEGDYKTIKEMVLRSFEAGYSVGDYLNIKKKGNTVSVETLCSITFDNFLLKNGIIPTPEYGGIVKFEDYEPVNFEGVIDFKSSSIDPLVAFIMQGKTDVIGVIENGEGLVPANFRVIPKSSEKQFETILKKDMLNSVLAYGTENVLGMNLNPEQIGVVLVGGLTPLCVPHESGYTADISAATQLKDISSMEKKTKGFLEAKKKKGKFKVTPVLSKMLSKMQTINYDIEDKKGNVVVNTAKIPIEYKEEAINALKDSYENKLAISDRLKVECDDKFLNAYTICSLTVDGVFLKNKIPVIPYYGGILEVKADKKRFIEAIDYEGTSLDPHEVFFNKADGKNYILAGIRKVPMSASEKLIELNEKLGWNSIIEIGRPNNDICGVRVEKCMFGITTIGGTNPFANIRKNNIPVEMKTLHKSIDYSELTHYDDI
Experiment: EMSA, inhibition of NrpR binding to […]-labelled glnK1 operator DNA
Conditions: inducer ligand; wild type glnK1 operator region O1+O2; 0.1 and 0.4 mM 2OG

Question: O=C(O)CCC(=O)C(=O)O [2-oxoglutarate] was tested. Which “EMSA, inhibition of NrpR binding to 32P-labelled glnK1 operator DNA” value did it give?
Answer: 2OG indicates the nitrogen state of the cell and is the inducer ligand
